For 5 compounds, inhibition and IC50 results are on record in patent USRE45173E1, “Inhibitors of CYP 17” (Novartis AG, priority 2009, dated 2014).

The structures appear in SMILES notation.

Sequence of recombinant human CYP17 enzyme (P05093 whole entry): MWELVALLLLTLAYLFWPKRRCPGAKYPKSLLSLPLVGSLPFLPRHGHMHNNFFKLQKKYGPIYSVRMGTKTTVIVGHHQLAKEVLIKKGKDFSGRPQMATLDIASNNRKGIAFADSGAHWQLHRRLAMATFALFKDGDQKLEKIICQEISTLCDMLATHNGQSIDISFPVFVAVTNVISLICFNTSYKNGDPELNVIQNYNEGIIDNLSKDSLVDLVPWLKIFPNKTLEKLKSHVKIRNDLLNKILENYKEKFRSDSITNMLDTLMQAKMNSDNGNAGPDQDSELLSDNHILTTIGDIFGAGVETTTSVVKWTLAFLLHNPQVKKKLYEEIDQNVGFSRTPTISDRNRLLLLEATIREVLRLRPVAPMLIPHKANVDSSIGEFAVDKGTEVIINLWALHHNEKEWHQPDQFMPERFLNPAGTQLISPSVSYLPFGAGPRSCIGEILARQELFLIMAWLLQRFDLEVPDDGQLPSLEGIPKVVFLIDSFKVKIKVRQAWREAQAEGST
Sequence of rat CYP17 lyase (P11715 whole entry): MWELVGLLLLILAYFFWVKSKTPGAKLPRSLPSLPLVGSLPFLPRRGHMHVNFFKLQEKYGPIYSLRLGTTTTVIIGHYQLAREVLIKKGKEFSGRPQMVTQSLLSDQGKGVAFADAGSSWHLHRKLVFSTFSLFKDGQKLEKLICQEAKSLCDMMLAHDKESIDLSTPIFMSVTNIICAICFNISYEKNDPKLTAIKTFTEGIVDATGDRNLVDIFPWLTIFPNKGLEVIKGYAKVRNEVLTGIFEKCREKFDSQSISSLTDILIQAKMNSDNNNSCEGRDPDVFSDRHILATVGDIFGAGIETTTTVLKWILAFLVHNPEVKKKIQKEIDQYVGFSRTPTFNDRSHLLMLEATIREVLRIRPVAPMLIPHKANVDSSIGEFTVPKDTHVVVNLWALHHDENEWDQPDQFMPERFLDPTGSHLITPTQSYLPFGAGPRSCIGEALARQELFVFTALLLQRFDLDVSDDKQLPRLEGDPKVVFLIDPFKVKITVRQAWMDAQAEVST

One test concerns the target rat CYP17 lyase (Rattus norvegicus (Rat), UniProt P11715). Briefly: rat CYP 17 Lyase model, rat testes microsomes as the source. The following applies: 100 nM compound; read-out: rCYP17 Lyase % Inh @ 100 nM. The test is classed as biochemical. The method, then:
For routine screening, the assay was set up with 16 μg of enzyme in 50 μL reaction volume. 17α-hydroxy pregnenolone [21-3H] was added to a final concentration of 0.25 μM. NADPH is used at a final concentration of 4.2 mM. Total reaction volume was made up to 50 μL with 50 mM Phosphate buffer pH 7.5. The reaction mixture was incubated at room temperature for 90 minutes with gentle shaking. The reaction was stopped by the addition of 100 μL of buffer. 500 μL of 5% freshly prepared activated charcoal was added to the solution and mixed well by vortexing. The samples were centrifuged at 17568×g for 5 minutes. (14000 rpm). The supernatant was carefully transferred to fresh tube and 1.3 mL of scintillation fluid was added, mixed by vortexing.
The radioactivity was measured in a 1450 MicroBeta TriLux™ scintillation counter from Wallac-Perkin Elmer®, USA. The measurements were carried out in 2.0 mL Eppendorforf™ tubes. Each tube was counted for 1 minute. The amount of tritiated acetic acid released is proportional to the lyase activity. Percent lyase activity in presence of inhibitor was calculated using the formula given below.
[formula] • Sample: Enzyme reaction in presence of inhibitor. • Positive control: Enzyme reaction without inhibitor but containing DMSO at 1% final concentration. • Blank-Contains all reagents except enzyme. % Inhibition=100%−% Lyase activity
For IC50 determination, the % inhibition was plotted as a function of inhibitor concentration. The data was fitted to sigmoidal equation using Graphpad Prism® software IV to generate IC50 values.
For the rat CYP 17 Lyase Model:
The same procedure described above was used but using rat testes microsomes as the source and with a substrate concentration of 0.5 μM.
With `Cc1ccncc1N1CCN(c2ccc3sccc3c2)C1=O` [Example 27A, 1-Benzo[b]thiophen-5-yl-3-(4-methyl-pyridin-3-yl)-imidazolidin-2-one], the inhibition at 0.1 µM stood at 101%.
Still for that read-out and setting: then `Cc1ccncc1N1CCN(c2ccc3ncccc3c2)C1=O` [Example 52A, 1-(4-Methyl-pyridin-3-yl)-3-quinolin-6-yl-imidazolidin-2-one], with 97%; and `Cc1ccncc1N1CCN(c2ccc(F)cc2)C1=O` [Example 18A, 1-(4-Fluoro-phenyl)-3-(4-methyl-pyridin-3-yl)-imidazolidin-2-one], with 88%.

The test is the same for the next values; noted with them: rat testes microsomes, substrate 0.5 μM; read-out: Lyase IC 50 nM Human/Rat (Rat).
On to `Cc1cccc(N2CCN(c3cnccc3C)C2=O)c1` [Example 55A, 1-(4-Methyl-pyridin-3-yl)-3-m-tolyl-imidazolidin-2-one], for which the IC50 turned out to be 7 nM.
As to `Cc1ccncc1N1CCN(c2ccc3ncccc3c2)C1=O` [Example 52A, 1-(4-Methyl-pyridin-3-yl)-3-quinolin-6-yl-imidazolidin-2-one], the IC50 was found to be 5 nM.
Consider `Cc1ccncc1N1CCN(c2cccc(C(F)(F)F)c2)C1=O` [Example 70A, 1-(4-Methyl-pyridin-3-yl)-3-(3-trifluoromethyl-phenyl)-imidazolidin-2-One], for which the IC50 is 2 nM.
On the same count and under the same terms, then `Cc1ccncc1N1CCN(c2ccc(F)cc2)C1=O` [Example 18A, 1-(4-Fluoro-phenyl)-3-(4-methyl-pyridin-3-yl)-imidazolidin-2-one], with 12 nM.

In another test the target is recombinant human CYP17 enzyme (Homo sapiens (Human), UniProt P05093). The test is described as follows: Cytochrome P450, 17-20 lyase (CYP17-lyase) assay, tritiated acetic acid release from 17-α-hydroxy pregnenolone [21-3H]. In kind it is biochemical. The following applies: human CYP17, substrate 0.25 μM; read-out: Lyase IC 50 nM Human/Rat (Human). Put shortly:
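Membranes of cells expressing human CYP17 incubated 90 min at room temperature with [21-3H]17α-hydroxypregnenolone and 4.2 mM NADPH in 50 mM phosphate pH 7.5. Released tritiated acetic acid separated from steroids by charcoal and counted by scintillation; IC50 from sigmoidal fit of % inhibition.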
For the compound `Cc1ccncc1N1CCN(c2ccc3sccc3c2)C1=O` [Example 27A, 1-Benzo[b]thiophen-5-yl-3-(4-methyl-pyridin-3-yl)-imidazolidin-2-one], the IC50 came out at 24 nM.
In the case of `Cc1cccc(N2CCN(c3cnccc3C)C2=O)c1` [Example 55A, 1-(4-Methyl-pyridin-3-yl)-3-m-tolyl-imidazolidin-2-one], the IC50 is 9 nM.
The same measure, in the same setting: then `Cc1ccncc1N1CCN(c2ccc3ncccc3c2)C1=O` [Example 52A, 1-(4-Methyl-pyridin-3-yl)-3-quinolin-6-yl-imidazolidin-2-one], with 96 nM; and `Cc1ccncc1N1CCN(c2cccc(C(F)(F)F)c2)C1=O` [Example 70A, 1-(4-Methyl-pyridin-3-yl)-3-(3-trifluoromethyl-phenyl)-imidazolidin-2-One], with 6.5 nM; and `Cc1ccncc1N1CCN(c2ccc(F)cc2)C1=O` [Example 18A, 1-(4-Fluoro-phenyl)-3-(4-methyl-pyridin-3-yl)-imidazolidin-2-one], with 76 nM.
